Measured values taken from US20120029187A1, “HALOALKYLSULFONANILIDE DERIVATIVE” (Nissan Chemical Industries, Ltd., priority 2009, published 2012).

Columns and labels:
Assay type in all cases: in vivo
barnyardgrass [1] = experiment: Test Example 1: herbicidal effects in preemergence treatment under submerged conditions; details: dose 2.52 g/a
Outline: (§1)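 Scoring 0 (<5% mortality) to 5 (≥90%) was done three weeks after preemergence application to the water surface of submerged (4 cm) alluvial soil, doses given as g per are. Weeds were seeded and 2.5-leaf rice transplanted on the treatment day; greenhouse at 25–30 °C.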

bulrush [2] = experiment: as above; details: dose 2.52 g/a
Outline: as §1

ducksalad [3] = experiment: as above; details: dose 2.52 g/a
Outline: as §1

transplanted rice = experiment: Test Example 1: preemergence treatment under submerged conditions, effect on crop; details: dose 2.52 g/a
Outline: as §1

barnyardgrass [4] = experiment: Test Example 2: herbicidal effects during the vegetation period under submerged conditions; details: treatment during the vegetation period under submerged conditions; dose 2.52 g/a
Outline: (§2)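 Barnyardgrass, bulrush and ducksalad were co-sown in alluvial soil flooded to 4 cm and grown in a greenhouse at 25 to 30° C. At the 1- or 2-leaf stage, water-diluted emulsifiable concentrates went onto the water surface at set doses (g/a). Herbicidal effect was scored three weeks later on a graded scale.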

bulrush [5] = experiment: as above; details: treatment during the vegetation period under submerged conditions; dose 2.52 g/a
Outline: as §2

ducksalad [6] = experiment: as above; details: treatment during the vegetation period under submerged conditions; dose 2.52 g/a
Outline: as §2

Italian ryegrass [7] = experiment: Test Example 3: herbicidal effects in soil treatment; details: dose 3.2 g/a
Outline: (§3)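 Seeds were sown in sterilized diluvial soil and covered with about 1.5 cm of soil. Compounds, formulated as emulsifiable concentrates and diluted with water, were sprayed evenly over the soil surface at set doses in g/a. Herbicidal effect was scored on a rating scale three weeks later.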

barnyardgrass [8] = experiment: as above; details: dose 3.2 g/a
Outline: as §3

beadstraw [9] = experiment: as above; details: dose 3.2 g/a
Outline: as §3

common chickweed [10] = experiment: as above; details: dose 3.2 g/a
Outline: as §3

common lambsquater [11] = experiment: as above; details: dose 3.2 g/a
Outline: as §3

common ragweed [12] = experiment: as above; details: dose 3.2 g/a
Outline: as §3

giant foxtail [13] = experiment: as above; details: dose 3.2 g/a
Outline: as §3

large crabgrass [14] = experiment: as above; details: dose 3.2 g/a
Outline: as §3

posumbu knotweed [15] = experiment: as above; details: dose 3.2 g/a
Outline: as §3

redroot pigweed [16] = experiment: as above; details: dose 3.2 g/a
Outline: as §3

velvetleaf [17] = experiment: as above; details: dose 3.2 g/a
Outline: as §3

water foxtail [18] = experiment: as above; details: dose 3.2 g/a
Outline: as §3

wild oat [19] = experiment: as above; details: dose 3.2 g/a
Outline: as §3

Italian ryegrass [20] = experiment: Test Example 4: herbicidal effect in foliage treatment; details: dose 3.2 g/a, three weeks after application
Outline: (§4)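 Seeds were spot-sown in boxes of sterilized diluvial soil and raised in a greenhouse (25 to 30° C) for 14 days before a single foliar application. Compounds were applied as emulsifiable concentrates diluted with water, at predetermined doses in g/a. Injury was graded three weeks post-spray.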

barnyardgrass [21] = experiment: as above; details: dose 3.2 g/a, three weeks after application
Outline: as §4

beadstraw [22] = experiment: as above; details: dose 3.2 g/a, three weeks after application
Outline: as §4

common chickweed [23] = experiment: as above; details: dose 3.2 g/a, three weeks after application
Outline: as §4

common lambsquater [24] = experiment: as above; details: dose 3.2 g/a, three weeks after application
Outline: as §4

common ragweed [25] = experiment: as above; details: dose 3.2 g/a, three weeks after application
Outline: as §4

giant foxtail [26] = experiment: as above; details: dose 3.2 g/a, three weeks after application
Outline: as §4

large crabgrass [27] = experiment: as above; details: dose 3.2 g/a, three weeks after application
Outline: as §4

posumbu knotweed [28] = experiment: as above; details: dose 3.2 g/a, three weeks after application
Outline: as §4

redroot pigweed [29] = experiment: as above; details: dose 3.2 g/a, three weeks after application
Outline: as §4

velvetleaf [30] = experiment: as above; details: dose 3.2 g/a, three weeks after application
Outline: as §4

water foxtail [31] = experiment: as above; details: dose 3.2 g/a, three weeks after application
Outline: as §4

wild oat [32] = experiment: as above; details: dose 3.2 g/a, three weeks after application
Outline: as §4

SMILES | A: barnyardgrass, herbicidal effect (evaluation scale 0-5) (barnyardgrass [1]) | B: bulrush, herbicidal effect (evaluation scale 0-5) (bulrush [2]) | C: ducksalad, herbicidal effect (evaluation scale 0-5) (ducksalad [3]) | a: transplanted rice, effect on crop (evaluation scale 0-5) (transplanted rice) | A: barnyardgrass, herbicidal effect (evaluation scale 0-5) (barnyardgrass [4]) | B: bulrush, herbicidal effect (evaluation scale 0-5) (bulrush [5]) | C: ducksalad, herbicidal effect (evaluation scale 0-5) (ducksalad [6]) | H: Italian ryegrass, herbicidal effect (evaluation scale 0-5) (Italian ryegrass [7]) | A: barnyardgrass, herbicidal effect (evaluation scale 0-5) (barnyardgrass [8]) | O: beadstraw, herbicidal effect (evaluation scale 0-5) (beadstraw [9]) | N: common chickweed, herbicidal effect (evaluation scale 0-5) (common chickweed [10]) | L: common lambsquater, herbicidal effect (evaluation scale 0-5) (common lambsquater [11]) | J: common ragweed, herbicidal effect (evaluation scale 0-5) (common ragweed [12]) | E: giant foxtail, herbicidal effect (evaluation scale 0-5) (giant foxtail [13]) | D: large crabgrass, herbicidal effect (evaluation scale 0-5) (large crabgrass [14]) | M: posumbu knotweed, herbicidal effect (evaluation scale 0-5) (posumbu knotweed [15]) | K: redroot pigweed, herbicidal effect (evaluation scale 0-5) (redroot pigweed [16]) | I: velvetleaf, herbicidal effect (evaluation scale 0-5) (velvetleaf [17]) | G: water foxtail, herbicidal effect (evaluation scale 0-5) (water foxtail [18]) | F: wild oat, herbicidal effect (evaluation scale 0-5) (wild oat [19]) | further results
CCOC(=O)N(c1ccccc1CN1COC(C)(C)C(F)C1=O)S(=O)(=O)C(F)(F)F (stereo not drawn) [II-34] | 5 (mortality of 90% or above (nearly complete death)) | 5 (mortality of 90% or above (nearly complete death)) | 5 (mortality of 90% or above (nearly complete death)) | 0 (mortality of less than 5% (almost ineffective)) | 5 (mortality of 90% or above (nearly complete death)) | 5 (mortality of 90% or above (nearly complete death)) | 5 (mortality of 90% or above (nearly complete death)) | 2 (mortality of at least 20% and less than 40%) | 5 (mortality of 90% or above (nearly complete death)) | 4 (mortality of at least 70% and less than 90%) | 3 (mortality of at least 40% and less than 70%) | 3 (mortality of at least 40% and less than 70%) | 4 (mortality of at least 70% and less than 90%) | 4 (mortality of at least 70% and less than 90%) | 5 (mortality of 90% or above (nearly complete death)) | 5 (mortality of 90% or above (nearly complete death)) | 3 (mortality of at least 40% and less than 70%) | 3 (mortality of at least 40% and less than 70%) | 5 (mortality of 90% or above (nearly complete death)) | 0 (mortality of less than 5% (almost ineffective)) | H: Italian ryegrass, herbicidal effect (Italian ryegrass [20]): 4 (mortality of at least 70% and less than 90%); A: barnyardgrass, herbicidal effect (barnyardgrass [21]): 5 (mortality of 90% or above (nearly complete death)); O: beadstraw, herbicidal effect (beadstraw [22]): 4 (mortality of at least 70% and less than 90%); N: common chickweed, herbicidal effect (common chickweed [23]): 4 (mortality of at least 70% and less than 90%); L: common lambsquater, herbicidal effect (common lambsquater [24]): 3 (mortality of at least 40% and less than 70%); J: common ragweed, herbicidal effect (common ragweed [25]): 4 (mortality of at least 70% and less than 90%); E: giant foxtail, herbicidal effect (giant foxtail [26]): 3 (mortality of at least 40% and less than 70%); D: large crabgrass, herbicidal effect (large crabgrass [27]): 4 (mortality of at least 70% and less than 90%); M: posumbu knotweed, herbicidal effect (posumbu knotweed [28]): 4 (mortality of at least 70% and less than 90%); K: redroot pigweed, herbicidal effect (redroot pigweed [29]): 2 (mortality of at least 20% and less than 40%); I: velvetleaf, herbicidal effect (velvetleaf [30]): 3 (mortality of at least 40% and less than 70%); G: water foxtail, herbicidal effect (water foxtail [31]): 5 (mortality of 90% or above (nearly complete death)); F: wild oat, herbicidal effect (wild oat [32]): 0 (mortality of less than 5% (almost ineffective))
CC(C)COC(=O)N(c1ccccc1CN1COC(C)(C)C(F)C1=O)S(=O)(=O)C(F)(F)F (stereo not drawn) [II-36] | 5 (mortality of 90% or above (nearly complete death)) | 5 (mortality of 90% or above (nearly complete death)) | 5 (mortality of 90% or above (nearly complete death)) | 0 (mortality of less than 5% (almost ineffective)) | 5 (mortality of 90% or above (nearly complete death)) | 5 (mortality of 90% or above (nearly complete death)) | 5 (mortality of 90% or above (nearly complete death)) | 0 (mortality of less than 5% (almost ineffective)) | 5 (mortality of 90% or above (nearly complete death)) | 4 (mortality of at least 70% and less than 90%) | 4 (mortality of at least 70% and less than 90%) | 0 (mortality of less than 5% (almost ineffective)) | 4 (mortality of at least 70% and less than 90%) | 3 (mortality of at least 40% and less than 70%) | 4 (mortality of at least 70% and less than 90%) | 4 (mortality of at least 70% and less than 90%) | 0 (mortality of less than 5% (almost ineffective)) | 3 (mortality of at least 40% and less than 70%) | 5 (mortality of 90% or above (nearly complete death)) | 0 (mortality of less than 5% (almost ineffective)) | H: Italian ryegrass, herbicidal effect (Italian ryegrass [20]): 2 (mortality of at least 20% and less than 40%); A: barnyardgrass, herbicidal effect (barnyardgrass [21]): 5 (mortality of 90% or above (nearly complete death)); O: beadstraw, herbicidal effect (beadstraw [22]): 3 (mortality of at least 40% and less than 70%); N: common chickweed, herbicidal effect (common chickweed [23]): 3 (mortality of at least 40% and less than 70%); L: common lambsquater, herbicidal effect (common lambsquater [24]): 1 (mortality of at least 5% and less than 20%); J: common ragweed, herbicidal effect (common ragweed [25]): 3 (mortality of at least 40% and less than 70%); E: giant foxtail, herbicidal effect (giant foxtail [26]): 3 (mortality of at least 40% and less than 70%); D: large crabgrass, herbicidal effect (large crabgrass [27]): 4 (mortality of at least 70% and less than 90%); M: posumbu knotweed, herbicidal effect (posumbu knotweed [28]): 2 (mortality of at least 20% and less than 40%); K: redroot pigweed, herbicidal effect (redroot pigweed [29]): 0 (mortality of less than 5% (almost ineffective)); I: velvetleaf, herbicidal effect (velvetleaf [30]): 2 (mortality of at least 20% and less than 40%); G: water foxtail, herbicidal effect (water foxtail [31]): 4 (mortality of at least 70% and less than 90%); F: wild oat, herbicidal effect (wild oat [32]): 0 (mortality of less than 5% (almost ineffective))
